From patent US20120270875A1, “PYRIMIDINE AMIDE COMPOUNDS” (priority 2011, published 2012) come the findings set out here.

pIC50: −log10 of the molar value.

Chain of sLFA-1/ICAM-1 (P20701 26-1090 limits assumed, stated change not applied): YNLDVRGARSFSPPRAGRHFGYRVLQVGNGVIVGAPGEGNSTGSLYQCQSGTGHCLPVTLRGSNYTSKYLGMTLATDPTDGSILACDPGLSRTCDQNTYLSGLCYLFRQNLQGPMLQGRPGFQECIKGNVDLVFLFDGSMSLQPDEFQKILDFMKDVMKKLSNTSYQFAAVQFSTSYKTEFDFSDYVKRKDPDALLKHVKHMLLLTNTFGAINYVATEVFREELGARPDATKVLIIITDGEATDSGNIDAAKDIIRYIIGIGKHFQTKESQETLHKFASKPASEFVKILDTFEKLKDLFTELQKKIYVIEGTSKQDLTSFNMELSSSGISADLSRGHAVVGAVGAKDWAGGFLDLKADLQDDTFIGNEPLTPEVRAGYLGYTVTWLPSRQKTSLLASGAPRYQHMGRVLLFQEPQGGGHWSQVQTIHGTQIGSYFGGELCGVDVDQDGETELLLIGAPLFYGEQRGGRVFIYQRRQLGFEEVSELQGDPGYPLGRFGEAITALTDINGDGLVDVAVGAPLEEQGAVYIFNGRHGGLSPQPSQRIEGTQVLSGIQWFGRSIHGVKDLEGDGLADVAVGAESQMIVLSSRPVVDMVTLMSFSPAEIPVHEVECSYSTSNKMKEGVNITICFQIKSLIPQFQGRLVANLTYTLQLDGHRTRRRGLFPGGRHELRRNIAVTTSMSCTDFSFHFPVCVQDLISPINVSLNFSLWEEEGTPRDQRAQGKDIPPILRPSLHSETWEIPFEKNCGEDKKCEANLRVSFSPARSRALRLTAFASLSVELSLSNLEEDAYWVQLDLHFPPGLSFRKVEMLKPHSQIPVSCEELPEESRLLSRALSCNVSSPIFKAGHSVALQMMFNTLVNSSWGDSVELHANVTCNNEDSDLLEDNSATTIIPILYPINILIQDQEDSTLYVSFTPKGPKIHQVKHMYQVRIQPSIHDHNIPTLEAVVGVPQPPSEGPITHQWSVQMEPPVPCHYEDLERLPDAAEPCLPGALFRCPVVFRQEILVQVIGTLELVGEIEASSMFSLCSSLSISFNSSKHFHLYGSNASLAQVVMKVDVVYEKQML
Chain of sLFA-1/ICAM-1 (P05107 23-700 limits assumed, stated change not applied): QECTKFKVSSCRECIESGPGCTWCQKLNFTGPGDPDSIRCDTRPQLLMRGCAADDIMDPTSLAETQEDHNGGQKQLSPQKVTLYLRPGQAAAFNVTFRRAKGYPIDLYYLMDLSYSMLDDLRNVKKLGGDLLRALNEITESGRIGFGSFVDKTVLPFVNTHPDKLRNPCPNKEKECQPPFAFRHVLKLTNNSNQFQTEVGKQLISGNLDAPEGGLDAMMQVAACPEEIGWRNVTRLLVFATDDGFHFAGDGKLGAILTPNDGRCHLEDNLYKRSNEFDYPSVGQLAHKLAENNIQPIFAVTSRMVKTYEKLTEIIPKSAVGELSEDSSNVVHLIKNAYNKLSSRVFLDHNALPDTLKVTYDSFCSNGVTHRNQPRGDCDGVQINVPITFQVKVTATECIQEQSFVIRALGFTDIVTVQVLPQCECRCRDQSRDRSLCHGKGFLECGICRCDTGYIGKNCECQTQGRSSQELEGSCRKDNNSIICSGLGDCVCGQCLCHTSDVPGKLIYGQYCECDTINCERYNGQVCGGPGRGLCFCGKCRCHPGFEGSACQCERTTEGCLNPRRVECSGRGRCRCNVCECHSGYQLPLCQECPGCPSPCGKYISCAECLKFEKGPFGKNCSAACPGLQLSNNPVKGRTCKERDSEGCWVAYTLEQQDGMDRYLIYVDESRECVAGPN

The experiment deals with sLFA-1/ICAM-1 (Homo sapiens, UniProt P05107+P20701, DEL701-769). Nature of the experiment: sLFA-1/ICAM-1 ELISA. It is filed as binding. To be noted: sLFA-1 coated plates, 5dICAM-Fc binding, ELISA; read-out: LFA-1/ICAM (IC50). Here is the method:
sLFA-1/ICAM-1 ELISA and Mac-1/ICAM-1 ELISA
Plates were coated with either 50 μl/well of 2.0 ug/ml solution of sLFA-1 or Mac-1 receptor in divalent cation buffer (1 mM MnCl2, 0.14M NaCl, 20 mM HEPES pH 7.2) at 4° C. overnight. Two hundred fifty μl of blocking buffer (1% BSA in divalent cation buffer) was added to each well 1 hour at 37° C. Plates were washed 3 times with wash buffer (TBS/0.05% Tween-20/1 mM MnCl2). The compound to be tested was solubilized in DMSO. A series of 1:3 dilutions were performed to achieve a concentration range of 0.45 nM-3 uM. Fifty μl of binding buffer (0.5% BSA in divalent cation buffer)/1% DMSO and 50 μl of the solutions to be tested were added to the appropriate wells and incubated for 1 hour. Fifty μl of 5dICAM-Fc (27 ng/ml) was added to the appropriate wells and 50 μl binding buffer was added to non-specific binding wells and incubated for 2 hours and washed. One hundred μl of 1:4000 HRP-goat anti-huIgG was added to each well and incubated for 1 hour and washed. One hundred μl of 1:1 TMB solution was added to each well and developed for 20 min at room temperature. Color development was stopped by adding 100 μl H3PO4 to each well. Absorbance was measured at 450 nm.
A general note: An ELISA detects its analyte on a solid surface through an enzyme-linked reagent.
Regarding `Cc1nc(NCCCc2cccc(O)c2)nc(C)c1C(=O)N[C@@H](CNC(=O)c1csc(-c2ccncc2)n1)C(=O)O` (single isomer, unassigned) [Example 41], the pIC50 was 6.45.

In the case of `Cc1nc(NCc2ccccc2-c2cccc(O)c2)nc(C)c1C(=O)N[C@@H](CNC(=O)c1cccs1)C(=O)O` [Example 12, (S)-2-({2-[(3′-hydroxy-biphenyl-2-ylmethyl)-amino]-4,6-dimethyl-pyrimidine-5-carbonyl}-amino)-3-[(thiophene-2-carbonyl)-amino]-propionic acid], the pIC50 was 6.72. `Cc1nc(NCc2ccccc2-c2ccccc2O)nc(C)c1C(=O)N[C@@H](CNC(=O)c1cccs1)C(=O)O` [Example 14, (S)-2-({2-[(2′-hydroxy-biphenyl-2-ylmethyl)-amino]-4,6-dimethyl-pyrimidine-5-carbonyl}-amino)-3-[(thiophene-2-carbonyl)-amino]-propionic acid]: the pIC50 was 6.30. For the compound `Cc1nc(NC2CCc3cc(O)ccc3C2)nc(C)c1C(=O)N[C@@H](CNC(=O)c1cccs1)C(=O)O` (stereo partly drawn) [Example 17, (S) 2-(2-[6-hydroxy-1,2,3,4-tetrahydro-naphthalen-2-ylamino]-4,6-dimethyl-pyrimidine-5-carbonyl-amino)-3-[(thiophene-2-carbonyl)-amino]-propionic acid], the pIC50 is 6.51. Turning to `Cc1nc(NC2CCc3cccc(O)c3C2)nc(C)c1C(=O)N[C@@H](CNC(=O)c1cccs1)C(=O)O` (stereo partly drawn) [Example 18, (S) 2-(2-[8-hydroxy-1,2,3,4-tetrahydro-naphthalen-2-ylamino]-4,6-dimethyl-pyrimidine-5-carbonyl-amino)-3-[(thiophene-2-carbonyl)-amino]-propionic acid], the pIC50 is 7.32. The figure for `Cc1nc(NCCCc2cccc(O)c2)nc(C)c1C(=O)N[C@@H](CNC(=O)c1ccccn1)C(=O)O` [Example 42, (S)-2-({2-[3-(3-hydroxy-phenyl)-propylamino]-4,6-dimethyl-pyrimidine-5-carbonyl}-amino)-3-[(pyridine-2-carbonyl)-amino]-propionic acid] is 7.07; for `Cc1nc(C)c(C(=O)NC[C@H](NC(=O)c2c(C)nc(NCCCc3cccc(O)c3)nc2C)C(=O)O)s1` [Example 43, (S)-2-({2-[3-(3-hydroxy-phenyl)-propylamino]-4,6-dimethyl-pyrimidine-5-carbonyl}-amino)-3-[(2,4-dimethyl-thiazole-5-carbonyl)-amino]-propionic acid] it is 6.89; for `Cc1nc(NCCCc2cccc(O)c2)nc(C)c1C(=O)N[C@@H](CNC(=O)CC1CCCCC1)C(=O)O` [Example 44, (S)-2-({2-[3-(3-hydroxy-phenyl)-propylamino]-4,6-dimethyl-pyrimidine-5-carbonyl}-amino)-3-[1-cyclohexyl-acetylamino]-propionic acid] it is 6.94. For the compound `Cc1nc(NCCCc2cccc(O)c2)nc(C)c1C(=O)N[C@@H](CNC(=O)c1nccc2ccccc12)C(=O)O` [Example 45, (S)-2-({2-[3-(3-hydroxy-phenyl)-propylamino]-4,6-dimethyl-pyrimidine-5-carbonyl}-amino)-3-[(isoquinoline-1-carbonyl)-amino]-propionic acid], the pIC50 was 7.06. With `Cc1nc(NCCCc2cccc(O)c2)nc(C)c1C(=O)N[C@@H](CNC(=O)c1csc(-c2ccncc2)n1)C(=O)O` [Example 47, (S)-2-({2-[3-(3-hydroxy-phenyl)-propylamino]-4,6-dimethyl-pyrimidine-5-carbonyl}-amino)-3-[(2-pyridin-4-yl-thiazole-4-carbonyl)-amino]-propionic acid], the pIC50 was 7.15.

On to `Cc1nc(NCCCc2cccc(O)n2)nc(C)c1C(=O)N[C@@H](CNC(=O)c1cccs1)C(=O)O` [Example 52, (S)-2-({2-[3-(6-Hydroxy-pyridin-2-yl)-propylamino]-4,6-dimethyl-pyrimidine-5-carbonyl}-amino)-3-[(thiophene-2-carbonyl)-amino]-propionic acid], for which the pIC50 is 5.70. As to `Cc1nc(NCCCc2ccc(F)c(O)c2)nc(C)c1C(=O)N[C@@H](CNC(=O)c1cccs1)C(=O)O` [Example 65, (S)-2-({2-[3-(4-Fluoro-3-hydroxy-phenyl)-propylamino]-4,6-dimethyl-pyrimidine-5-carbonyl}-amino)-3-[(thiophene-2-carbonyl)-amino]-propionic acid], the pIC50 was 5.89. The same measure for `Cc1nc(NCCCc2cccc(O)c2C)nc(C)c1C(=O)N[C@@H](CNC(=O)c1cccs1)C(=O)O` [Example 66, (S)-2-({2-[3-(3-Hydroxy-2-methyl-phenyl)-propylamino]-4,6-dimethyl-pyrimidine-5-carbonyl}-amino)-3-[(thiophene-2-carbonyl)-amino]-propionic acid]: 6.95; for `Cc1ccc(CCCNc2nc(C)c(C(=O)N[C@@H](CNC(=O)c3cccs3)C(=O)O)c(C)n2)cc1O` [Example 67, (S)-2-({2-[3-(3-Hydroxy-4-methyl-phenyl)-propylamino]-4,6-dimethyl-pyrimidine-5-carbonyl}-amino)-3-[(thiophene-2-carbonyl)-amino]-propionic acid]: 6.48. `Cc1nc(NCCCc2cc(O)ccc2Cl)nc(C)c1C(=O)N[C@@H](CNC(=O)c1cccs1)C(=O)O` [Example 68, (S)-2-({2-[3-(2-Chloro-5-hydroxy-phenyl)-propylamino]-4,6-dimethyl-pyrimidine-5-carbonyl}-amino)-3-[(thiophene-2-carbonyl)-amino]-propionic acid]: the pIC50 was 6.54. In the case of `Cc1nc(NCCCc2ccc(O)cc2)nc(C)c1C(=O)N[C@@H](CNC(=O)c1cccs1)C(=O)O` [Example 69, (S)-2-({2-[3-(4-Hydroxy-phenyl)-propylamino]-4,6-dimethyl-pyrimidine-5-carbonyl}-amino)-3-[(thiophene-2-carbonyl)-amino]-propionic acid], the pIC50 was 7.55. With `Cc1nc(NCCCc2cccc(O)c2F)nc(C)c1C(=O)N[C@@H](CNC(=O)c1cccs1)C(=O)O` [Example 70, (S)-2-({2-[3-(2-Fluoro-3-hydroxy-phenyl)-propylamino]-4,6-dimethyl-pyrimidine-5-carbonyl}-amino)-3-[(thiophene-2-carbonyl)-amino]-propionic acid], the pIC50 is at most 5.52. As for `Cc1nc(NCCCc2cc(O)ccc2F)nc(C)c1C(=O)N[C@@H](CNC(=O)c1cccs1)C(=O)O` [Example 71, (S)-2-({2-[3-(2-Fluoro-5-hydroxy-phenyl)-propylamino]-4,6-dimethyl-pyrimidine-5-carbonyl}-amino)-3-[(thiophene-2-carbonyl)-amino]-propionic acid], the pIC50 was 6.65. Regarding `Cc1ccc(O)cc1CCCNc1nc(C)c(C(=O)N[C@@H](CNC(=O)c2cccs2)C(=O)O)c(C)n1` [Example 72, (S)-2-({2-[3-(2-Methyl-5-hydroxy-phenyl)-propylamino]-4,6-dimethyl-pyrimidine-5-carbonyl}-amino)-3-[(thiophene-2-carbonyl)-amino]-propionic acid], the pIC50 was 6.80. With `O=C(N[C@@H](CNC(=O)c1cccs1)C(=O)O)c1cnc(NCCCc2cccc(O)c2)nc1` [Example 75, (S)-2-({2-[3-(3-Hydroxy-phenyl)-propylamino]-pyrimidine-5-carbonyl}-amino)-3-[(thiophene-2-carbonyl)-amino]-propionic acid], the pIC50 is 7.19. Regarding `O=C(NC[C@H](NC(=O)c1cnc(NCCCc2cccc(O)c2)nc1C(F)(F)F)C(=O)O)c1cccs1` [Example 77, (S)-2-({2-[3-(3-Hydroxy-phenyl)-propylamino]-4-trifluoromethyl-pyrimidine-5-carbonyl}-amino)-3-[(thiophene-2-carbonyl)-amino]-propionic acid], the pIC50 was 6.42.

Turning to `CCc1nc(NCCCc2cccc(O)c2)nc(CC)c1C(=O)N[C@@H](CNC(=O)c1cccs1)C(=O)O` [Example 79, (S)-2-({4,6-Diethyl-2-[3-(3-hydroxy-phenyl)-propylamino]-pyrimidine-5-carbonyl}-amino)-3-[(thiophene-2-carbonyl)-amino]-propionic acid], the pIC50 was 7.05. The same measure for `Cc1nc(NCCCc2cccc(O)c2)nc(C)c1C(=O)N[C@@H](CNC(=O)c1ccsc1)C(=O)O` [Example 85, (S)-2-({2-[3-(3-hydroxy-phenyl)-propylamino]-4,6-dimethyl-pyrimidine-5-carbonyl}-amino)-3-[(thiophene-3-carbonyl)-amino]-propionic acid]: 7.92; for `Cc1csc(C(=O)NC[C@H](NC(=O)c2c(C)nc(NCCCc3cccc(O)c3)nc2C)C(=O)O)c1` [Example 89, (S)-2-({2-[3-(3-hydroxy-phenyl)-propylamino]-4,6-dimethyl-pyrimidine-5-carbonyl}-amino)-3-[(4-methyl-thiophene-2-carbonyl)-amino]-propionic acid]: 7.11; for `Cc1ccsc1C(=O)NC[C@H](NC(=O)c1c(C)nc(NCCCc2cccc(O)c2)nc1C)C(=O)O` [Example 91, (S)-2-({2-[3-(3-hydroxy-phenyl)-propylamino]-4,6-dimethyl-pyrimidine-5-carbonyl}-amino)-3-[(3-methyl-thiophene-2-carbonyl)-amino]-propionic acid]: 7.38.
